The values below are quoted from earlier work in patent US9050307B2, “Method for the preparation of a levothyroxine solution” (EMP Pharma GmbH, priority 2011, dated 2015).

On to `N[C@@H](Cc1cc(I)c(Oc2cc(I)c(O)c(I)c2)c(I)c1)C(=O)[O-].[Na+]` [Levothyroxine sodium, Sodium (2S)-2-amino-3-[4-(4-hydroxy-3,5-diiodophenoxy)-3,5-diiodophenyl]propanoate], for which the “Solubility in ethanol (96 percent)” value (ethanol (96 percent)) is listed as “slightly soluble”. The Solubility in water entry (water) was “very slightly soluble”.
